Measurements published in paper PMC7562955 (Nature Communications, 2020).

Target: T1, mouse TLR9 (Mus musculus, UniProt Q9EQU3)
T1 construct: host or cells: HEK293 (293-mTLR9)
T1 sequence (Q9EQU3 26-1032): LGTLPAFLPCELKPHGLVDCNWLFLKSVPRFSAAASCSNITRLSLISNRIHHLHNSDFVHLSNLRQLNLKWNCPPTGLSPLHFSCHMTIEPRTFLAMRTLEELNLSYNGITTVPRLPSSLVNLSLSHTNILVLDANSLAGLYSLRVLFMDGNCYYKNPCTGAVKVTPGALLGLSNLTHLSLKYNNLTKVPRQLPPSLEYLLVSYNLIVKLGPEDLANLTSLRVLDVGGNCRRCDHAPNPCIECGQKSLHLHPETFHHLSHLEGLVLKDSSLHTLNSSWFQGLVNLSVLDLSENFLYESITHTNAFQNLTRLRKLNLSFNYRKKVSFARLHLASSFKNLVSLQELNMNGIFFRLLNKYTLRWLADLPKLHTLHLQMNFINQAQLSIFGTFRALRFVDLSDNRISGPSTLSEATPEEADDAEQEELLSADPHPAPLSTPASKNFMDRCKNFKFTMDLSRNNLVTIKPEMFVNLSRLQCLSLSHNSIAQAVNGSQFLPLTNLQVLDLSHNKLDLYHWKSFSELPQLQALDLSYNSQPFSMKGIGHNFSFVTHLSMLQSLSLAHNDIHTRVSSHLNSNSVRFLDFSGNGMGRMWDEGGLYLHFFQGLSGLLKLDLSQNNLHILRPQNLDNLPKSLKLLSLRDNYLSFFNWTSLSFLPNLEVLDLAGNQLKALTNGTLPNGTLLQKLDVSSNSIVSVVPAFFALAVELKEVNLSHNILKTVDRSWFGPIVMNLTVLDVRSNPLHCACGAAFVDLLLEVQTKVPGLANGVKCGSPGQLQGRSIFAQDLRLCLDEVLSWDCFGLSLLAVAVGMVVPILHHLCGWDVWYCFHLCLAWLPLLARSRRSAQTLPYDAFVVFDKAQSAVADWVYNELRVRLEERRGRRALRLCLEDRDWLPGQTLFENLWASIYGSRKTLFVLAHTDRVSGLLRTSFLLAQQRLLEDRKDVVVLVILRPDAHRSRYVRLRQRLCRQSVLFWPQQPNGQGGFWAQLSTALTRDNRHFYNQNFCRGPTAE
Assay: Mouse TLR9 reporter gene assay (NF-kB luciferase, HEK293)
Type: cell-based
Settings: CpG1826 100 nM
Description: Compounds were dissolved in dimethyl sulfoxide. The day before transfection, mouse TLR7 genestably-expressing HE293 cell line (293XL-mTLR7 cell, InvivoGen, USA) and mouse TLR9 genestably-expressing HEK293 cell line (293-mTLR9 cell, InvivoGen) were seeded in collagen-coated 6-well plate (AGC techno glass) at 3 × 10^5 cells/well in DMEM (GIBCO) with 10% fetal bovine serum (GIBCO), and 10 μg ml^−1 Blastcidin S HCl (GIBCO) and incubated at 37 °C in 5% CO2. The plates were incubated over-night and then cotransfected with 1 μg (mouse TLR7) or 0.3 μg (mouse TLR9) of pNF-kB-Luciferase reporter in a 10:1 ratio with 4 μl of FuGene6 transfection reagent (Promega corporation, USA) following the manufacturer’s instructions. The plates were incubated 24 h. The cells re-seeded into 96-well plate (AGC techno glass) at 2 × 10^4 cells/well in DMEM (GIBCO) with 10% fetal bovine serum (GIBCO), and 10 μg ml^−1 Blastcidin S HCl (GIBCO) and then inhibition with various concentrations of compound. HCQ (mouse TLR7/9, Acros Organics, United Kingdom) was used as positive control. After 30 min, R848 (mouse TLR7/8 ligand) or CpG1826 (mouse TLR9 ligand, Hokkaido System Science Co., Ltd.) added to each well, wherein each final concentration were adjusted to 200 nM R848 (mouse TLR7) or 100 nM CpG1826 (mouse TLR9). The plates were then incubated an additional 6 h at 37 °C in 5% CO2, and then the luciferase activity was measured as activation of mouse TLR7 and 9. The luciferase activity was evaluated as follows: Bright-GloTM Luciferase Assay System (Promega) was added to the incubated sample (100 μl/well); after 2 min, the luminescence intensity of each sample was measured with a luminometer (Envision).

Structure (SMILES) | mouse TLR9 activity, reporter signal (compound 0.0001 nM (as headed)) | mouse TLR9 activity, reporter signal (compound 0.001 nM (as headed)) | mouse TLR9 activity, reporter signal (compound 0.003 nM (as headed)) | mouse TLR9 activity, reporter signal (compound 0.01 nM (as headed)) | mouse TLR9 activity, reporter signal (compound 0.03 nM (as headed)) | mouse TLR9 activity, reporter signal (compound 0.1 nM (as headed)) | mouse TLR9 activity, reporter signal (compound 0.3 nM (as headed)) | mouse TLR9 activity, reporter signal (compound 1 nM (as headed)) | mouse TLR9 activity, reporter signal (compound 3 nM (as headed)) | mouse TLR9 activity, reporter signal (compound 10 nM (as headed)) | mouse TLR9 activity, reporter signal (compound 30 nM (as headed)) | mouse TLR9 activity, reporter signal (compound 100 nM (as headed))
CCOc1nc(C)c2nc(-c3cncc(F)c3)n(Cc3ccc(CN4C[C@@H]5C[C@H]4CN5C)cc3)c2n1 [Cpd-7] | 670258 | 769686 | 682550 | 681778 | 778720 | 762582 | 758536 | 750674 | 718794 | 519616 | 67454 | 0
CCN(CCO)CCCC(C)Nc1ccnc2cc(Cl)ccc12 (stereo not drawn) [HCQ, hydroxychloroquine, reference compound] | 670258 | 691508 | 691964 | 727784 | 642512 | 455236 | 212962 | 48988 | 7184 | 3474 | 3862 | 0
